Laboratory results taken from patent US20120070449A1, “METHODS OF TREATING INFLAMMATION” (Yeda Research And Development Co. Ltd., priority 2009, published 2012).

Columns and labels:
CD151/VLA4 complex = assay: Co-immunoprecipitation of CD151 with β1 integrin (CD151/VLA4 complex); type: cell-based, mouse
Method: (§1) 1×10^7 T cells from control C57BL/6 or CCR2−/− mice were suspended in 1 ml RPMI medium containing 10% (v/v) FCS. Next, 1 ng/ml of CCL2 (PeproTech) was added to half of the tubes (the other half was kept as a control), and the tubes were placed at 37° C. for different time periods (see the results section below). After incubation, the cells were washed and used for the different experiments.
Stimulated frozen cells were lysed in lysis buffer containing: 25 mM Tris, pH 7.4; 2 mM Vanadate; 75 mM glycophosphate, pH 7.2; 2 mM EDTA; 2 mM EGTA; 10 mM NaPPi; and 0.5% NP-40, in the presence of the following protease inhibitors: 10 mg/ml Leupeptin; 10 mg/ml aprotinin; 10 mg/ml pepstatin; 10 mg/ml chymostatin (Roche); 1 mM PMSF (Sigma); and 20 mM N-etheyl-melamide (Sigma).
(§2) Protein G-Sepharose beads (GE Healthcare) were conjugated to Tyr (P) monoclonal antibody (Santa Cruz) or to anti-CD151 (Santa Cruz) for 2 hours at 4° C. followed by three washes in phosphate-buffered saline. Beads were added to the cell lysates and proteins were immunoprecipitated overnight. The protein G-bound material was washed three times with phosphate-buffered saline containing 0.1% SDS and 0.5% Nonidet P-40. Immunoprecipitates were separated by SDS-PAGE. […]

LFA-1 = assay: Laminar flow adhesion assay: LFA-1 mediated adhesion to ICAM-1 triggered by CCL21; type: cell-based; conditions: mouse T cells pre-treated, FIGS. 4G-J
Method: Purified ICAM-1-Fc (R&D Systems, Minneapolis, Minn.) were coated alone or with mouse CCL21 (R&D Systems) on polystyrene plates, as previously described [Grabovsky V et al. (2000) J Exp Med. 192, 495-506; Sigal A et al. (2000) J. Immunol. 165, 442-452]. The polystyrene plates were each assembled on the lower wall of the flow chamber as previously described [Feigelson S W et al. (2001) J Biol. Chem. 276, 13891-13901]. All flow experiments were conducted at 37° C.
Mouse T cells were purified and re-suspended in HBSS++ (HBSS, Mg^2+Ca^2+) with ICAM-1-Fc or mCCL2 for 1 hr. Cells were then perfused through the flow chamber at low shear stress (0.5-0.75 dyn/cm2) for 2 min. Tethers were defined as transient or rolling if cells attached briefly (less than 2 seconds) to the substrate, and as arrests if cells immediately arrested and remained stationary for at least 5 seconds of continuous flow. To assess adhesion strengthening, post arrest resistance to detachment over time was determined. Accumulated cells were subjected to a shear stress of 5 dyn/cm^2 for 10 minutes. At the indicated time points, the number of cells that remained bound was expressed relative to T cell population originally accumulated in the first 2 minutes of the assay.

[1] = picomolar circulating CCL2; Flaishon et al. 2008, WO 2008/012796; cited from earlier work
CD151 [2] = assay: CD151 mRNA expression in T cells (DNA chip array, RT-PCR, real-time PCR); type: cell-based, mouse
Method: as §1
Total RNA was isolated from cells using the Tri reagent kit (Molecular Research Center, Inc). Reverse transcription was carried out using Superscript II RT (Gibco-BRL) and the primers: […]
To obtain differential expression data of the T cells following CCL2 incubation, the differences between mRNA levels in this cell population were identified by screening mouse DNA chip arrays using the Affymatrix genechip expression analysis system (mouse 430 A2.0). The system consisted of two parameters: probe array and RNA target. Probe array included approximately 20,000 murine genes and ESTs. Each gene or EST was analyzed with approximately 20 pairs of specific, unique 25 mer-oligonucleotides probe. Each probe type was located in a specific area called probe cell. Each probe cell contained millions of copies of a given probe. All probe cells together made up the probe array (Affymetrix Genechip Expression Technical Manual). RNA from CCL2 treated T cells and from control T cells was converted to cDNA and then in vitro transcribed while labeled with biotin (see methods for RNA isolation and cells separation). The target RNA was hybridized to the probe array. The hybridized probe array was stained with streptavidin phycoerythrin conjugate and scanned by the GeneArray scanner. The amount of light emitted was proportional to the bound target at each location on the probe array. The two populations were compared according to the hybridization intensity in each cell.
mRNA levels of actin and CD151 were analyzed by quantitative real-time RT-PCR using a Light-Cycler instrument (Roche Diagnostics, Mannheim, Germany). […]

CD151 [3] = assay: CD151 cell surface expression on T cells (flow cytometry); type: cell-based, mouse; conditions: CCL2 1 ng/ml
Method: Freshly isolated T cells were pre-incubated in the presence or absence of CCL2 (1 ng/ml, PeproTech) for several time periods (see the results section below). After incubation the cells were double stained with anti-CD3 (Pharmagene) and anti-CD151 (Santa Cruz) and the secondary antibody alexa goat anti rabbit (Invitrogene) was used. Expression of the stained proteins was analyzed by flow cytometry.

T lymphocyte = conditions: picomolar levels of CCL2; Flaishon et al. 2008, WO 2008/012796; cited from earlier work
β-catenin = assay: Detection of β-catenin phosphorylation in T cells; type: cell-based, mouse; conditions: CCL2 1 ng/ml 10 minutes before activating anti-CD151 5 minutes, FIG. 4F
Method: 1×10^7 T cells were suspended in 1 ml RPMI medium containing 10% (v/v) FCS. The cells were stimulated with either 2 μg/ml anti-CD151 (Santa Cruz) or an isotype control antibody IgG rabbit anti mouse (ImmunoResearch Labs.inc). Thereafter, the cells were immediately placed at 37° C. for 5 minutes. Immediately after stimulation, the cells were fast frozen in liquid N2 and were lysed in lysis buffer containing: 25 mM Tris, pH 7.4; 2 mM Vanadate; 75 mM glycophosphate, pH 7.2; 2 mM EDTA; 2 mM EGTA; 10 mM NaPPi; and 0.5% NP-40, in the presence of the following protease inhibitors: 10 mg/ml Leupeptin; 10 mg/ml aprotinin; 10 mg/ml pepstatin; 10 mg/ml chymostatin (Roche); 1 mM PMSF (Sigma); and 20 mM N-etheyl-melamide (Sigma).
as §2, with “Cruz)” for “Cruz) or to anti-CD151 (Santa Cruz)”, “C.,” for “C.”, “SDS-PAGE. The protein bands were transferred onto a nitrocellulose membrane and probed with anti β-cat (BD Transduction Laboratories) followed by horseradish peroxidase-conjugated anti-mouse IgG (Jackson ImmunoResearch Labs, West Grove, Pa.).” for “SDS-PAGE.”

T cells = assay: Cytoskeleton rearrangement: CCL21-induced actin polymerization (FITC-phalloidin, flow cytometry); type: cell-based, mouse
Method: T cells were pre-incubated in the presence or absence of CCL2 (1 ng/ml, PeproTech) for 1 hour and were then stimulated with CCL21 (SLC, 100 ng/ml, PeproTech). Cells were fixed by 3.7% formaldehyde solution (Merck) and cytoskeleton rearrangement was analyzed by flow cytometry following staining with fluorescein isothiocyanate (FITC)-phalloidin, as was previously described [Flaishon et al., J. Biol. Chem. (2001) 276: 46701-46706].
For CD151 activation leading to cytoskeletal rearrangement-T cells were pretreated with either 2 μg/ml of activating antibody specific for the extracellular domain of CD151 (Santa Cruz) or with an isotype control antibody IgG rabbit anti mouse (ImmunoResearch Labs.inc)/anti CUL1 (Santa Cruz) for 1 hour/20 hours.
For blocking CD151− T cells were pretreated for 1 hour with 10 μg/ml blocking anti-CD151 antibody (BD pharmingen) or with 10 μg/ml control antibody anti-IgG (ImmunoResearch Labs.inc)/anti KPL1 (Chemicon).
Next, a 100 ng/ml chemokine CCL21 (SLC, PeproTech) stimulation was carried out and the cells were fixed by 3.7% formaldehyde solution (Merck), permeabilized and stained with fluorescein isothiocyanate (FITC)-phalloidin, as was previously described [Flaishon et al., J. Biol. Chem. (2001) 276: 46701-46706]. Cytoskeleton rearrangement was analyzed by flow cytometry.
1×10^7 T cells were incubated in the presence or absence of CCL2 for 10 minutes, followed by stimulation with either activating anti-CD151 (Santa Cruz, 2 μg/ml) or an isotype control antibody IgG rabbit anti mouse (ImmunoResearch Labs.inc, 2 μg/ml) for 1 hour. The cells were then stimulated with CCL21 (100 ng/ml) and actin polymerization was analyzed.
Cells were fixed by 3.7% formaldehyde solution (Merck), and cytoskeleton rearrangement was analyzed by flow cytometry following staining with fluorescein isothiocyanate (FITC)-phalloidin, as was previously described [Flaishon et al. (2001), supra].

Substance: CCL2: chemokine, also called Macrophage Chemotactic Protein-1 or MCP-1 (PeproTech), used at picomolar levels, 1 ng/ml
- CD151/VLA4 complex (β1 integrin pulled down with CD151) (CD151/VLA4 complex; CCR2-/- T cells incubated with CCL2, FIG. 4B): no effect
- CD151/VLA4 complex (β1 integrin pulled down with CD151) (CD151/VLA4 complex; control T cells incubated with CCL2, several time periods, FIG. 4A): disappearance of the CD151/VLA4 complex
- adhesion strengthening after arrest (resistance to detachment) (LFA-1; continuous/high shear stress): failed to remain firmly adhered
- LFA-1 activation by surface bound CCL21 (arrest/accumulation on ICAM-1) (LFA-1; low shear stress): minor effect
- progression of asthma and adjuvant arthritis [1]: attenuated progression of both asthma and adjuvant arthritis
- transcription of CD151 (RT-PCR) (CD151 [2]; CCR2-/- T cells, pM CCL2, FIG. 1D): no inhibition was observed
- differential gene expression of CD151 (DNA chip array) (CD151 [2]; T cells incubated 2 hours with CCL2): downregulated
- transcription of CD151 (RT-PCR) (CD151 [2]; control naive T cells, pM CCL2, 1, 2 or 4 hours, FIG. 1C): downregulated following 2 and 4 hour incubations
- CD151 cell surface expression (CD151 [3]; CCR2-/- T cells, FIG. 1G): no change was detected
- CD151 cell surface expression (CD151 [3]; control T cells, different time periods, FIGS. 1E-F): downregulated CD151 cell surface expression levels
- T lymphocyte homing to peripheral lymph nodes (T lymphocyte): inhibit T lymphocyte homing to peripheral lymph nodes
- β-catenin phosphorylation induced by CD151 activation (β-catenin): completely abolished
- actin polymerization elevation induced by CD151 activation (T cells; CCR2-/- T cells, CCL2 10 minutes before activating anti-CD151, FIG. 4D): not apparent
- CCL21-induced actin polymerization (T cells; control T cells, CCL2 1 ng/ml (pM levels) 1 hour, then CCL21 100 ng/ml, FIGS. 1A-B): suppressed actin polymerization
- actin polymerization elevation induced by CD151 activation (T cells; control T cells, longer CCL2 incubation (20 hours), FIG. 4E): maintained
- actin polymerization elevation induced by CD151 activation (T cells; control T cells, pM CCL2 10 minutes before activating anti-CD151 1 hour, then CCL21, FIG. 4C): completely abolished
